Values after ≈ are worked out from the molar mass of the structure shown. Like-named read-outs stand apart in the source and are kept apart here.
Legend:
MRSA DR 42412 (sputum) = assay: microbe, parasite or virus in culture
Procedure: (§1) For MIC testing all peptides were dissolved in DMSO (according to the method of L. L. Ling, et al., Nature 2015, 517, 455-459). Bacteria were grown on Mueller Hinton broth (oxoid). All incubations were at 37° C. Dilutions were carried out using Mueller Hinton. 100 μl of autoclaved Mueller Hinton broth was added to wells 2-12 on a 96-well plate. 200 μl of the peptide was added to well one at a concentration of 512 μg/ml. 100 μl of peptide in well one was taken up and pipetted into well two. The mixture was then mixed via pipetting before 100 μl was taken up and pipetted into well three. This process was repeated up to well 11. […] This was repeated three times. The 96-well plates were then incubated for 24 hours. The MIC was determined to be the lowest concentration at which there was no growth visible.

[1] = tested on: Staphylococcus aureus ATCC 29213; assay: microbe, parasite or virus in culture
Procedure: as §1

MRSA DM21455 (eye) = assay: microbe, parasite or virus in culture
Procedure: as §1

VRE ATCC 700802 = assay: microbe, parasite or virus in culture
Procedure: as §1

MRSA ATCC 700699 = assay: microbe, parasite or virus in culture
Procedure: as §1

M. smegmatis ATCC 607 = assay: microbe, parasite or virus in culture
Procedure: as §1

VRE ATCC 29212 = assay: microbe, parasite or virus in culture
Procedure: as §1

MRSA ATCC 33591 = tested on: MRSA ATCC 33591
In short: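 Twofold broth microdilution in Mueller Hinton from a 512 μg/ml starting well, peptides dissolved in DMSO. Plates incubated 24 hours at 37° C, in triplicate. MIC read as lowest concentration without visible growth.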

[2] = Staphylococcus aureus ATCC 29213, Table 4B

Row | SMILES | MBC (MRSA DR 42412 (sputum); DR 42412 (sputum)) [µg/mL] | MIC (MRSA DR 42412 (sputum); DR 42412 (sputum)) [µg/mL] | MBC ([1]; ATCC 29213) [µg/mL] | MIC ([1]; ATCC 29213) [µg/mL] | MBC (MRSA DM21455 (eye); DM21455 (eye)) [µg/mL] | MIC (MRSA DM21455 (eye); DM21455 (eye)) [µg/mL] | MIC (VRE ATCC 700802; ATCC 700802) [µg/mL] | MBC (MRSA ATCC 700699; ATCC 700699) [µg/mL] | MIC (MRSA ATCC 700699; ATCC 700699) [µg/mL] | MIC (M. smegmatis ATCC 607; ATCC 607) [µg/mL] | MIC (VRE ATCC 29212; ATCC 29212) [µg/mL] | MIC (MRSA*) (MRSA ATCC 33591; ATCC 33591) [µg/mL] | also measured
1 | CC[C@H](C)[C@H](NC(=O)[C@@H](Cc1ccccc1)NC)C(=O)N[C@@H](CO)C(=O)N[C@H](CCC(N)=O)C(=O)N[C@@H](C(=O)N[C@H](C(=O)N[C@@H](CO)C(=O)N[C@H]1C(=O)N[C@@H](C)C(=O)N[C@@H](CCCNC(=N)N)C(=O)N[C@@H]([C@@H](C)CC)C(=O)O[C@H]1C)[C@@H](C)CC)[C@@H](C)CC [Compound 6, Arg10-teixobactin, reference compound] |  |  |  |  |  |  |  |  |  |  |  |  | MBC (MRSA DR 42412 (sputum); MRSA 2: MRSA DR 42412 (sputum), Table 4B): 0.5 µg/mL (≈ 0.402 µM); MBC [1, 2]: 1 µg/mL (≈ 0.804 µM); MIC [1, 2]: 0.25 µg/mL (≈ 0.201 µM); MIC (MRSA DM21455 (eye); MRSA 3: MRSA DM21455 (eye), clinical isolate, Table 4B): 0.5 µg/mL (≈ 0.402 µM); MBC (MRSA DM21455 (eye); MRSA 3: MRSA DM21455 (eye), Table 4B): 1 µg/mL (≈ 0.804 µM); MIC (VRE ATCC 700802; VRE 1: VRE ATCC 700802, Table 4B): 2 µg/mL (≈ 1.61 µM); MIC (MRSA ATCC 700699; MRSA 1: MRSA ATCC 700699, Mueller Hinton Broth, Table 4B): 1 µg/mL (≈ 0.804 µM); MBC (MRSA ATCC 700699; MRSA 1: MRSA ATCC 700699, Table 4B): 2 µg/mL (≈ 1.61 µM); MIC (M. smegmatis ATCC 607; M. smegmatis ATCC 607, Table 4B): 1 to 2 µg/mL; MIC (VRE ATCC 29212; VRE 2: VRE ATCC 29212, Table 4B): 2 µg/mL (≈ 1.61 µM); MIC (MRSA*) (MRSA ATCC 33591; MRSA ATCC 33591, Table 4A): 2 µg/mL (≈ 1.61 µM)
2 | CC[C@@H](C)[C@@H](NC(=O)[C@@H](CCC(N)=O)NC(=O)[C@H](CO)NC(=O)[C@@H](NC(=O)[C@@H](Cc1ccccc1)NC)[C@@H](C)CC)C(=O)N[C@H](C(=O)N[C@@H](CO)C(=O)N[C@H]1C(=O)N[C@@H](C)C(=O)N[C@@H]([C@@H](C)CC)C(=O)N[C@@H]([C@@H](C)CC)C(=O)O[C@H]1C)[C@@H](C)CC [Compound 18, Ile10-teixobactin] | ≤0.0625 | ≤0.0625 | 0.125 (≈ 0.104 µM) | ≤0.0625 | 0.125 (≈ 0.104 µM) | ≤0.0625 | ≤0.0625 | 1 (≈ 0.832 µM) | 0.25 (≈ 0.208 µM) | 0.5 (≈ 0.416 µM) | ≤0.0625 | 0.25 (≈ 0.208 µM) | 
3 | CC[C@@H](C)[C@@H](NC(=O)[C@@H](CCC(N)=O)NC(=O)[C@H](CO)NC(=O)[C@@H](NC(=O)[C@@H](Cc1ccccc1)NC)[C@@H](C)CC)C(=O)N[C@H](C(=O)N[C@@H](CO)C(=O)N[C@H]1C(=O)N[C@@H](C)C(=O)N[C@@H](C(C)C)C(=O)N[C@@H]([C@@H](C)CC)C(=O)O[C@H]1C)[C@@H](C)CC [Compound 17] | 4 (≈ 3.37 µM) | 0.5 (≈ 0.421 µM) | 1 (≈ 0.842 µM) | 0.25 (≈ 0.211 µM) | 2 (≈ 1.68 µM) | 0.25 (≈ 0.211 µM) | 0.5 (≈ 0.421 µM) | 4 (≈ 3.37 µM) | 1 (≈ 0.842 µM) | 1 (≈ 0.842 µM) | 0.5 (≈ 0.421 µM) | 0.5 (≈ 0.421 µM) | 

— patent publication US20240327463A1, “ANTIBACTERIAL PRODUCTS” (priority 2017, published 2024)
